Here are results for 24 compounds from patent publication US12291516B2, “Substituted 1-amino-1H-imidazole-5-carboxamide as Bruton's tyrosine kinase inhibitors” (Henan Zhiwei Biomedicine Co., Ltd., priority 2019, dated 2025).

The target of test [1] is T1, BTK (Homo sapiens (Human), UniProt Q06187). The experiment in a line: BTK inhibition assay by Reaction Biology Corporation (33P-ATP, filter-binding). The following applies: footnote a: from Reaction Biology Corporation. The test is classed as biochemical. On the procedure:
(§1) BTK inhibition Assay and selectivity Assay The assay was conducted either a by a third party (Reaction Biology Corporation, PA, USA) or in house.
a) Reagent and Procedure by Reaction Biology Corporation:
Base Reaction buffer; 20 mM Hepes (pH 7.5), 10 mM MgCl2, 1 mM EGTA, 0.02%. Brij35, 0.02 mg/ml BSA, 0.1 mM Na3VO4, 2 mM DTT, 1% DMSO. Required cofactors were added individually to each kinase reaction. Compound handling: testing compounds were dissolved in 100% DMSO to specific concentration. The serial dilution was conducted by Integra Viaflo Assist in DMSO.
The substrate was prepared in freshly prepared reaction buffer of above and required cofactors were added to the substrate solution. The kinase was delivered to the substrate solution and the mixture was gently mixed. Testing compounds in 100% DMSO was added to the kinase reaction mixture by Acoustic technology (Echo550; nanoliter range) and the new mixture was incubated for 20 min at room temperature. Then ^33P-ATP (Specific activity 10 μCi/μl) was added to the reaction mixture to initiate the reaction and the mixture was incubated for 2 hours at room temperature. The radioactivity was detected by filter-binding method and the kinase activity data was expressed as the percent of remaining kinase activity in test sample compared to vehicle (dimethyl sulfoxide) reaction. IC50 values and curve fits were obtained using Prism (GraphPad Software). The result is outlined in Table-I

The target in test [2] is T1, BTK. Put plainly: In house ELISA kinase inhibition assay, BTK. The test is classed as biochemical. The following applies: footnote b: from in house procedure (ELISA). How it is done: as §1
b) In House Procedure for BTK, BMX, EGFR and ITK:
Kinase inhibitory activities of compounds were evaluated using the Enzyme-linked immunosorbent assay (ELISA). The kinase enzyme of BTK, BMX, EGFR and ITK were purchased from Carna Bioscience (Kobe, Japan). A total of 10 ng/mL antiphosphotyrosine (PY713) antibody (abcam, Cambridge Science Park, UK) was precoated in 96-well ELISA plates. The kinase enzymes in each reaction well were set to BTK (101.25 ng/mL), BMX (90 ng/mL), EGFR (90 ng/mL) or ITK (120 ng/mL) and incubated with indicated drugs in 1× reaction buffer (50 mmol/L HEPES pH 7.4, 20 mmol/L MgCl2, 0.1 mmol/L MnCl2, 1 mmol/L DTT) containing 20 μmol/L (the final concentration of substrate in ITK reaction was 30 μmol/L) substrate (NH2-[…]-biotin) at 25° C. for 1 h. Then, a total of 3 μmol/L ATP was added and the reaction was continued for 2 h. The products of reaction were transferred into 96-well ELISA plates containing antibody and incubated at 25° C. for 30 min. After incubation, the wells were washed with PBS and then incubated with horseradish peroxidase (HRP)-conjugated streptavidin. The wells were visualized using 3,3′,5,5′-tetramethylbenzidine (TMB), and chromogenic reaction was ended with 2 mol/L H2SO4, the absorbance was read with a multimode plate reader (PerkinElmer, USA) at 450 nm. IC50 values and curve fits were obtained using Prism (GraphPad Software). (Table I-IV)
In general terms: ELISA stands for enzyme-linked immunosorbent assay.

T1 sequence (Q06187 whole entry): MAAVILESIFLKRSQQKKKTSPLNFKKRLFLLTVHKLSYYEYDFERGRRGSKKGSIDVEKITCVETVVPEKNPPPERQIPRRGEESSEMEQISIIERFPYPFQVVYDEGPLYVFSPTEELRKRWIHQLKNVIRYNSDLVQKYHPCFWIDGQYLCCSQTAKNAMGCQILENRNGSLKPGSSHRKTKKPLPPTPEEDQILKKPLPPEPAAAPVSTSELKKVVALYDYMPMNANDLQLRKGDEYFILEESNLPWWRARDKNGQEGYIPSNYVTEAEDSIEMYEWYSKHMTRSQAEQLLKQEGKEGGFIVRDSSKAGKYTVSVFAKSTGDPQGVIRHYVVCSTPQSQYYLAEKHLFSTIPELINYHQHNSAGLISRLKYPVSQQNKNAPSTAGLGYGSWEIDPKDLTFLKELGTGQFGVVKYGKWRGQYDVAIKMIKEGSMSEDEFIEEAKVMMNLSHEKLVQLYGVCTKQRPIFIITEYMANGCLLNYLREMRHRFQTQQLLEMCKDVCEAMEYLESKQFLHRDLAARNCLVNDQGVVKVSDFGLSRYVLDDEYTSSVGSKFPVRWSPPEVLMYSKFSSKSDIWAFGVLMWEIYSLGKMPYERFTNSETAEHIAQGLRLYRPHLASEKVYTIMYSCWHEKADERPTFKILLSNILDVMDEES

On to `C#CC(=O)N1CCC[C@H]1c1nc(-c2ccc(C(=O)Nc3ccccn3)cc2)c(C(N)=O)n1N` [Example 7, (S)-1-amino-2-(1-propioloylpyrrolidin-2-yl)-4-(4-(pyridin-2-ylcarbamoyl)phenyl)-1H-imidazole-5-carboxamide], for which, in test [1], the half-inhibitory concentration (IC50) (in general, the point on the concentration scale where inhibition reaches its midpoint) is 85 nM. Take `N#CN1CCC[C@H]1c1nc(-c2ccc(C(=O)Nc3ccccn3)cc2)c(C(N)=O)n1N` [Example 9, (S)-1-amino-2-(1-cyanopyrrolidin-2-yl)-4-(4-(pyridin-2-ylcarbamoyl)phenyl)-1H-imidazole-5-carboxamide]: in test [1], the IC50 worked out at 5920 nM.

In test [2], `C=C(F)C(=O)N1CCCC[C@H]1c1nc(-c2ccc(C(=O)Nc3cc(OC)ccn3)cc2)c(C(N)=O)n1N` [Example 70, (S)-1-amino-2-(1-(2-fluoroacryloyl)piperidin-2-yl)-4-(4-((4-methoxy-pyridin-2-yl)carbamoyl)phenyl)-1H-imidazole-5-carboxamide] registered a concentration for half-maximal inhibition (IC50) of 2890 nM. In test [2], `CC#CC(=O)N1CCCC[C@H]1c1nc(-c2ccc(C(=O)Nc3cc(CC)ccn3)cc2)c(C(N)=O)n1N` [Example 77, (S)-1-amino-2-(1-(but-2-ynoyl)piperidin-2-yl)-4-(4-((4-ethylpyridin-2-yl)carbamoyl)phenyl)-1H-imidazole-5-carboxamide] showed a half-inhibitory concentration (IC50) of 17.9 nM.

The compound `CCc1ccnc(NC(=O)c2ccc(-c3nc([C@@H]4CCCCN4C(=O)/C(C#N)=C/C4CC4)n(N)c3C(N)=O)cc2)c1` [Example 78, (S,E)-1-amino-2-(1-(2-cyano-3-cyclopropylacryloyl)piperidin-2-yl)-4-(4-((4-ethylpyridin-2-yl)carbamoyl)phenyl)-1H-imidazole-5-carboxamide] returned a 50% inhibitory concentration (IC50) in test [2] of 6560 nM.

In turn, `CCc1ccnc(NC(=O)c2ccc(-c3nc([C@@H]4CCCCN4C(=O)/C(C#N)=C/C(C)C)n(N)c3C(N)=O)cc2)c1` [Example 79, (S,E)-1-amino-2-(1-(2-cyano-4-methylpent-2-enoyl)piperidin-2-yl)-4-(4-((4-ethylpyridin-2-yl)carbamoyl)phenyl)-1H-imidazole-5-carboxamide] yielded an IC50 in test [2] of 1720 nM. On the same count and under the same terms, the figure for `CC#CC(=O)N1CCCC[C@H]1c1nc(-c2ccc(C(=O)Nc3cc(C#N)ccn3)cc2)c(C(N)=O)n1N` [Example 82, (S)-1-amino-2-(1-(but-2-ynoyl)piperidin-2-yl)-4-(4-((4-cyanopyridin-2-yl)carbamoyl)phenyl)-1H-imidazole-5-carboxamide] is 45.6 nM; for `C=CC(=O)N1CCCCCC1c1nc(-c2ccc(C(=O)Nc3cc(CC)ccn3)cc2)c(C(N)=O)n1N` (stereo not drawn) [Example 94, 2-(1-acryloylazepan-2-yl)-1-amino-4-(4-((4-ethylpyridin-2-yl)carbamoyl)phenyl)-1H-imidazole-5-carboxamide] it is 226 nM. Still for that read-out and setting: in the case of `C=CC(=O)N1CC2(CC(c3nc(-c4ccc(C(=O)Nc5cc(CC)ccn5)cc4)c(C(N)=O)n3N)C2)C1` [Example 95, 2-(2-acryloyl-2-azaspiro[3.3]heptan-6-yl)-1-amino-4-(4-((4-ethylpyridin-2-yl)carbamoyl)phenyl)-1H-imidazole-5-carboxamide] it was 85.6 nM. In turn, `C#CC(=O)N1CCCC[C@H]1c1nc(-c2ccc(C(=O)Nc3cc(C)ccn3)cc2)c(C(N)=O)n1N` [Example 96, (S)-1-amino-4-(4-((4-methylpyridin-2-yl)carbamoyl)phenyl)-2-(1-propioloylpiperidin-2-yl)-1H-imidazole-5-carboxamide] gave an IC50 in test [2] of 19.2 nM. Same read-out and setting: the figure for `C#CC(=O)N1CCCC[C@H]1c1nc(-c2ccc(C(=O)Nc3cc(OC)ccn3)cc2)c(C(N)=O)n1N` [Example 97, (S)-1-amino-4-(4-((4-methoxypyridin-2-yl)carbamoyl)phenyl)-2-(1-propioloylpiperidin-2-yl)-1H-imidazole-5-carboxamide] is 9.22 nM. As to `C#CC(=O)N1CCCC[C@H]1c1nc(-c2ccc(C(=O)Nc3cc(Cl)ccn3)cc2)c(C(N)=O)n1N` [Example 99, (S)-1-amino-4-(4-((4-chloropyridin-2-yl)carbamoyl)phenyl)-2-(1-propioloylpiperidin-2-yl)-1H-imidazole-5-carboxamide], 2.78 nM corresponded to half-maximal inhibition in test [2] (IC50).

With `C#CC(=O)N1CCCC[C@H]1c1nc(-c2ccc(C(=O)Nc3cc(CC)ccn3)cc2)c(C(N)=O)n1N` [Example 100, (S)-1-amino-4-(4-((4-ethylpyridin-2-yl)carbamoyl)phenyl)-2-(1-propioloylpiperidin-2-yl)-1H-imidazole-5-carboxamide], the IC50 in test [2] turned out to be 9.99 nM. Same read-out and setting: in the case of `C=CC(=O)N1CCCC[C@H]1c1nc(-c2ccc(C(=O)Nc3cccnn3)cc2)c(C(N)=O)n1N` [Example 101, (S)-2-(1-acryloylpiperidin-2-yl)-1-amino-4-(4-(pyridazin-3-ylcarbamoyl)phenyl)-1H-imidazole-5-carboxamide] it was 211 nM. On the same count and under the same terms, the figure for `CC#CC(=O)N1CCCC[C@H]1c1nc(-c2ccc(C(=O)Nc3cccnn3)cc2)c(C(N)=O)n1N` [Example 102, (S)-1-amino-2-(1-(but-2-ynoyl)piperidin-2-yl)-4-(4-(pyridazin-3-ylcarbamoyl)phenyl)-1H-imidazole-5-carboxamide] is 2280 nM; for `C=CC(=O)N1CCC(Cc2nc(-c3ccc(C(=O)Nc4ccccn4)cc3)c(C(N)=O)n2N)CC1` [Example 103, 2-((1-acryloylpiperidin-4-yl)methyl)-1-amino-4-(4-(pyridin-2-ylcarbamoyl)phenyl)-1H-imidazole-5-carboxamide] it is 176 nM; for `CC#CC(=O)N1CCC(Cc2nc(-c3ccc(C(=O)Nc4ccccn4)cc3)c(C(N)=O)n2N)CC1` [Example 104, 1-amino-2-((1-(but-2-ynoyl)piperidin-4-yl)methyl)-4-(4-(pyridin-2-ylcarbamoyl)phenyl)-1H-imidazole-5-carboxamide] it is 459 nM. The same measure, in the same setting: the figure for `C=CC(=O)N1CCCC[C@H]1c1nc(-c2ccc(C(=O)Nc3cc(F)ccn3)cc2)c(C(N)=O)n1N` [Example 106, (S)-2-(1-acryloylpiperidin-2-yl)-1-amino-4-(4-((4-fluoropyridin-2-yl)carbamoyl)phenyl)-1H-imidazole-5-carboxamide] is 15 nM; for `C=CC(=O)N1CCCC[C@H]1c1nc(-c2ccc(C(=O)Nc3cc(C)c(F)cn3)cc2)c(C(N)=O)n1N` [Example 107, (S)-2-(1-acryloylpiperidin-2-yl)-1-amino-4-(4-((5-fluoro-4-methylpyridin-2-yl)carbamoyl)phenyl)-1H-imidazole-5-carboxamide] it is 44.5 nM; for `CC#CC(=O)N1CCCC[C@H]1c1nc(-c2ccc(C(=O)Nc3cc(C)c(F)cn3)cc2)c(C(N)=O)n1N` [Example 108, (S)-1-amino-2-(1-(but-2-ynoyl)piperidin-2-yl)-4-(4-((5-fluoro-4-methylpyridin-2-yl)carbamoyl)phenyl)-1H-imidazole-5-carboxamide] it is 121 nM. In test [2], `C=CC(=O)N1CCCC[C@H]1c1nc(-c2ccc(C(=O)Nc3cc(-c4ccc(Cl)cc4)ccn3)cc2)c(C(N)=O)n1N` [Example 109, (S)-2-(1-acryloylpiperidin-2-yl)-1-amino-4-(4-((4-(4-chlorophenyl)pyridin-2-yl)carbamoyl)phenyl)-1H-imidazole-5-carboxamide] displayed an IC50 of 1.9 nM. The same measure, in the same setting: the figure for `CC#CC(=O)N1CCCC[C@H]1c1nc(-c2ccc(C(=O)Nc3cc(-c4ccc(Cl)cc4)ccn3)cc2)c(C(N)=O)n1N` [Example 110, (S)-1-amino-2-(1-(but-2-ynoyl)piperidin-2-yl)-4-(4-((4-(4-chlorophenyl)pyridin-2-yl)carbamoyl)phenyl)-1H-imidazole-5-carboxamide] is 14.8 nM; for `C=CC(=O)N1CCCC[C@H]1c1nc(-c2ccc(C(=O)Nc3cc(-c4ccc(C#N)cc4)ccn3)cc2)c(C(N)=O)n1N` [Example 111, (S)-2-(1-acryloylpiperidin-2-yl)-1-amino-4-(4-((4-(4-cyanophenyl)pyridin-2-yl)carbamoyl)phenyl)-1H-imidazole-5-carboxamide] it is 10.6 nM. Take `CC#CC(=O)N1CCCC[C@H]1c1nc(-c2ccc(C(=O)Nc3cc(-c4ccc(C#N)cc4)ccn3)cc2)c(C(N)=O)n1N` [Example 112, (S)-1-amino-2-(1-(but-2-ynoyl)piperidin-2-yl)-4-(4-((4-(4-cyanophenyl)pyridin-2-yl)carbamoyl)phenyl)-1H-imidazole-5-carboxamide]: the IC50 in test [2] came to 22.8 nM.
